This assay relates to Wnt signaling. The experiment in a line: Wnt-Luc reporter assay for pathway inhibition of Wnt signaling. The assay is classed as cell-based, mouse (TM3 Wnt-Luc) or human (293 Wnt-Luc); not stated which. The conditions noted are these: Wnt-Luc reporter cells co-cultured with L-cell Wnt3a cells, 24 hours, luciferase signal reduced by 50%. How it is done: This example provides a method that is useful for evaluating test compounds for inhibition of Wnt signaling.
Mouse leydig cell TM3 cells (obtained from American Type Culture Collection, ATCC, Manassas, Va.) are cultured in 1:1 mixture of Ham's F12 medium and Dulbecco's modified Eagle's medium (Gibco/Invitrogen, Carlsbad, Calif.) supplemented with 2.5% FBS (Gibco/Invitrogen, Carlsbad, Calif.) and 5% horse serum (Gibco/Invitrogen, Carlsbad, Calif.), 50 unit/mL penicillin and 50 μg/mL of streptomycin (Gibco/Invitrogen, Carlsbad, Calif.) at 37° C. with 5% CO2 in air atmosphere. TM3 cells in a 10 cm dish are co-transfected with 8 μg of STF-reporter plasmid containing a luciferase gene driven by Wnt-responsive elements and 2 μg of pcDNA3.1-Neo (Gibco/Invitrogen, Carlsbad, Calif.) with 30 μL of FuGENE6 (Roche Diagnostics, Indianapolis, Ind.) following the manufacturer's protocol. Stable cell lines (TM3 Wnt-Luc) were selected with 400 μg/mL of G418 (Gibco/Invitrogen, Carlsbad, Calif.). The TM3 Wnt-Luc cells and L-cell Wnt3a cells (obtained from American Type Culture Collection, ATCC, Manassas, Va.; cultured in Dulbecco's modified Eagle's medium (Gibco/Invitrogen, Carlsbad, Calif.) supplemented with 10% FBS (Gibco/Invitrogen, Carlsbad, Calif.) and 50 unit/mL penicillin and 50 μg/mL of streptomycin (Gibco/Invitrogen, Carlsbad, Calif.) at 37° C. with 5% CO2 in air atmosphere) are trypsinized and co-cultured into a 384-well plate with DMEM medium supplemented with 2% FBS, and treated with different concentrations of a compound of the invention. After 24 hours, the firefly luciferase activities are assayed with the Bright-Glo™ Luciferase Assay System (Promega, Madison, Wis.). The IC50 is measured when the effect of the compound reduces the luminescence signal by 50%.
This example provides another method that is useful for evaluating test compounds for inhibition of Wnt signaling.
Human embryonic kidney 293 cells (obtained from American Type Culture Collection, ATCC, Manassas, Va.) are cultured in DMEM medium (Gibco/Invitrogen, Carlsbad, Calif.) supplemented with 10% FBS (Gibco/Invitrogen, Carlsbad, Calif.), 50 unit/mL penicillin and 50 μg/mL of streptomycin (Gibco/Invitrogen, Carlsbad, Calif.) at 37° C. with 5% CO2 in air atmosphere. 293 cells in a 10 cm dish are co-transfected with 8 μg of STF-reporter plasmid containing a luciferase gene driven by Wnt-responsive elements and 2 μg of pcDNA3.1-Neo (Gibco/Invitrogen, Carlsbad, Calif.) with 30 μL of FuGENE6 (Roche Diagnostics, Indianapolis, Ind.) following the manufacturer's protocol. Stable cell lines (293 Wnt-Luc) were selected with 400 μg/mL of G418 (Gibco/Invitrogen, Carlsbad, Calif.). The 293 Wnt-Luc cells and L-cell Wnt3a cells (obtained from American Type Culture Collection, ATCC, Manassas, Va.) are trypsinized and co-cultured into a 384-well plate with DMEM medium supplemented with 2% FBS, and treated with different concentrations of a compound of the invention. After 24 hours, the firefly luciferase activities are assayed with the Bright-Glo™ Luciferase Assay System (Promega, Madison, Wis.). The IC50 is measured when the effect of the compound reduces the luminescence signal by 50%.
(In general: In a reporter assay the amount or activity of a reporter protein is the signal.)

The structures appear in SMILES notation.

Usually IC50 stands for the concentration needed to halve the response being measured.

Regarding `CC(=O)c1cccc(-c2ccc(C(=O)NCc3ccc(-c4ccnc(C)c4)nc3)nc2)c1` [compound 31, 5-(3-acetylphenyl)-N-{[6-(2-methylpyridin-4-yl)pyridin-3-yl]methyl}pyridine-2-carboxamide], the midpoint of inhibition, the IC50, lay at 8000 pM.

`O=C(NCc1ccc(-c2ccnc(C(F)(F)F)c2)nc1)c1ccc(-c2cnccn2)cc1` [compound 32, 4-(pyrazin-2-yl)-N-({6-[2-(trifluoromethyl)pyridin-4-yl]pyridin-3-yl}methyl)benzamide] returned an IC50 of 700 pM. This IC50 is about 11-fold lower than that of the molecule before.

Consider `O=C(NCc1ccc(-c2ccnc(C(F)(F)F)c2)nc1)c1ccc(-c2cccc(F)c2)cn1` [compound 33, 5-(3-Fluorophenyl)-N-((2′-(trifluoromethyl)-2,4′-bipyridin-5-yl)methyl)picolinamide], for which the IC50 was found to be 200 pM.

In turn, `Cc1cc(-c2ccc(CNC(=O)c3ccc(-c4ccc(F)cc4)cn3)cn2)ccn1` [compound 35, 5-(4-fluorophenyl)-N-{[6-(2-methylpyridin-4-yl)pyridin-3-yl]methyl}pyridine-2-carboxamide] showed an IC50 of 4900 pM.

Regarding `Cc1cc(-c2ncc(CNC(=O)c3ccc(-c4cccc(F)c4)cn3)cc2C)ccn1` [compound 36, 5-(3-fluorophenyl)-N-{[5-methyl-6-(2-methylpyridin-4-yl)pyridin-3-yl]methyl}pyridine-2-carboxamide], the IC50 was 300 pM.

In the case of `O=C(NCc1ccc(-c2ccnc(F)c2)nc1)c1ccc(-c2ccnnc2)cn1` [compound 37, N-{[6-(2-fluoropyridin-4-yl)pyridin-3-yl]methyl}-5-(pyridazin-4-yl)pyridine-2-carboxamide], the IC50 came to 42000 pM.

In the case of `CN(C)c1ccc(-c2ccc(C(=O)NCc3ccc(-c4ccnc(F)c4)nc3)nc2)cn1` [compound 38, 6′-(Dimethylamino)-N-((2′-fluoro-2,4′-bipyridin-5-yl)methyl)-3,3′-bipyridine-6-carboxamide], the IC50 was found to be 560 pM.

Turning to `Cc1cc(CNC(=O)c2ccc(-c3cnccn3)cn2)cnc1-c1ccnc(F)c1` [compound 39, N-{[6-(2-fluoropyridin-4-yl)-5-methylpyridin-3-yl]methyl}-5-(pyrazin-2-yl)pyridine-2-carboxamide], the IC50 is 260 pM.

In the case of `Cc1cc(CNC(=O)c2ccc(-c3cnccn3)nc2)cnc1-c1ccnc(F)c1` [compound 40, N-{[6-(2-fluoropyridin-4-yl)-5-methylpyridin-3-yl]methyl}-6-(pyrazin-2-yl)pyridine-3-carboxamide], the IC50 came to 760 pM.

In turn, `O=C(NCc1ccc(-c2ccnc(C(F)(F)F)c2)nc1)c1ccc(-c2cnccn2)cn1` [compound 41, 5-(Pyrazin-2-yl)-N-((2′-(trifluoromethyl)-2,4′-bipyridin-5-yl)methyl)picolinamide] registered an IC50 of 360 pM.

`O=C(NCc1ccc(-c2ccnc(C(F)(F)F)c2)nc1)c1ccc(-c2cnccn2)nc1` [compound 42, 6-(Pyrazin-2-yl)-N-((2′-(trifluoromethyl)-2,4′-bipyridin-5-yl)methyl)nicotinamide] showed an IC50 of 790 pM.

Consider `CS(=O)(=O)c1cccc(-c2ccc(C(=O)NCc3ccc(-c4ccnc(F)c4)nc3)nc2)c1` [compound 43, N-((2′-Fluoro-2,4′-bipyridin-5-yl)methyl)-5-(3-(methylsulfonyl)phenyl)picolinamide], for which the IC50 amounted to 718000 pM. Against the preceding molecule, the IC50 is about 910-fold higher.

With `O=C(NCc1ccc(-c2ccnc(F)c2)nc1)c1ccc(-n2ccccc2=O)cn1` [compound 44, N-((2′-fluoro-[2,4′-bipyridin]-5-yl)methyl)-2-oxo-2H-[1,3′-bipyridine]-6′-carboxamide], the half-maximal inhibitory concentration (IC50) worked out at 465000 pM.

Turning to `Cc1cc(-c2ccc(CNC(=O)c3ccc(-c4ccccc4C)cc3)cn2)ccn1` [compound 45, 4-(2-methylphenyl)-N-{[6-(2-methylpyridin-4-yl)pyridin-3-yl]methyl}benzamide], the IC50 came to 3500 pM.

In turn, `CC(=O)N1CCN(c2ccc(C(=O)NCc3cnc(-c4ccnc(C(F)(F)F)c4)c(F)c3)cn2)CC1` [compound 46, 6-(4-Acetylpiperazin-1-yl)-N-((3-fluoro-2′-(trifluoromethyl)-[2,4′-bipyridin]-5-yl)methyl)nicotinamide] returned an IC50 of 4200 pM.

In turn, `Cc1cc(CNC(=O)c2ccc(-c3cccc(F)c3)nc2)cnc1-c1ccnc(C(F)(F)F)c1` [compound 47, 6-(3-fluorophenyl)-N-({5-methyl-6-[2-(trifluoromethyl)pyridin-4-yl]pyridin-3-yl}methyl)pyridine-3-carboxamide] gave an IC50 of 260 pM.

In turn, `CC(=O)N1CCN(c2ccc(C(=O)NCc3cnc(-c4ccnc(C(F)(F)F)c4)c(C)c3)nc2)CC1` [compound 48, 5-(4-Acetylpiperazin-1-yl)-N-((3-methyl-2′-(trifluoromethyl)-2,4′-bipyridin-5-yl)methyl)picolinamide] returned an IC50 of 26000 pM. This IC50 lies about 100-fold higher than the previous one.

Molecule `COC(=O)N1CCN(c2ccc(C(=O)NCc3cnc(-c4ccnc(C(F)(F)F)c4)c(F)c3)nc2)CC1` [compound 49, Methyl 4-(6-((3-fluoro-2′-(trifluoromethyl)-2,4′-bipyridin-5-yl)methylcarbamoyl)pyridin-3-yl)piperazine-1-carboxylate] gave an IC50 of 240 pM.

In the case of `Cc1cc(-c2ccc(CNC(=O)c3ccc(-c4ccccc4)c(C)c3)cn2)ccn1` [compound 50, 3-methyl-N-{[6-(2-methylpyridin-4-yl)pyridin-3-yl]methyl}-4-phenylbenzamide], the IC50 came out at 3000 pM.

In turn, `Cc1cc(CNC(=O)c2ccc(-c3cccnn3)nc2)cnc1-c1ccnc(F)c1` [compound 52, N-{[6-(2-fluoropyridin-4-yl)-5-methylpyridin-3-yl]methyl}-6-(pyridazin-3-yl)pyridine-3-carboxamide] showed an IC50 of 1600 pM.

`Cc1cc(CNC(=O)c2ccc(-c3cccnn3)nc2)cnc1-c1ccnc(C(F)(F)F)c1` [compound 53, N-({5-methyl-6-[2-(trifluoromethyl)pyridin-4-yl]pyridin-3-yl}methyl)-6-(pyridazin-3-yl)pyridine-3-carboxamide] registered an IC50 of 10200 pM.

`Cc1cc(CNC(=O)c2ccc(-c3cnccn3)nc2)cnc1-c1ccnc(C(F)(F)F)c1` [compound 54, N-({5-methyl-6-[2-(trifluoromethyl)pyridin-4-yl]pyridin-3-yl}methyl)-6-(pyrazin-2-yl)pyridine-3-carboxamide] registered an IC50 of 1200 pM.

`Cc1cc(CNC(=O)c2ccc(-c3cnccn3)cn2)cnc1-c1ccnc(C(F)(F)F)c1` [compound 55, N-((3-Methyl-2′-(trifluoromethyl)-2,4′-bipyridin-5-yl)methyl)-5-(pyrazin-2-yl)picolinamide] registered an IC50 of 800 pM.

`O=C(NCc1ccn(-c2ccnc(C(F)(F)F)c2)c(=O)c1)c1ccc(-c2cnccn2)cn1` [compound 56, N-((2-oxo-1-(2-(trifluoromethyl)pyridin-4-yl)-1,2-dihydropyridin-4-yl)methyl)-5-(pyrazin-2-yl)picolinamide] came in with an IC50 of 34000 pM.

Molecule `Cc1cc(CNC(=O)c2ccc(-c3cccc(F)c3)cn2)cnc1-c1ccnc(C(F)(F)F)c1` [compound 57, 5-(3-fluorophenyl)-N-({5-methyl-6-[2-(trifluoromethyl)pyridin-4-yl]pyridin-3-yl}methyl)pyridine-2-carboxamide] registered an IC50 of 350 pM.

In the case of `Cc1cc(CNC(=O)c2ccc(-c3cnccn3)cc2)cnc1-c1ccnc(C(F)(F)F)c1` [compound 58, N-((3-Methyl-2′-(trifluoromethyl)-2,4′-bipyridin-5-yl)methyl)-4-(pyrazin-2-yl)benzamide], the IC50 came out at 410 pM.

In turn, `Cc1cc(-c2ncc(CNC(=O)c3ccc(-c4cccc(F)c4)cn3)cc2F)ccn1` [compound 59, N-{[5-fluoro-6-(2-methylpyridin-4-yl)pyridin-3-yl]methyl}-5-(3-fluorophenyl)pyridine-2-carboxamide] registered an IC50 of 290 pM.

For the origin of these results see patent US9181235B2, “Substituted pyridines for modulating the WNT signaling pathway” (NOVARTIS AG, priority 2010, dated 2015).
